Results reported in patent US12552783B2, “Modulators of proteolysis and associated methods of use” (Arvinas Operations, Inc., priority 2018, dated 2026).

Biological target: KRas (Homo sapiens, UniProt P01116, G12C)
Experiment: KRas degradation in SW1573 cells by Western blot, normalized to GAPDH (data of Table 14)
Type: cell-based
Settings: SW1573 cells
Description: Cell Lines, Antibodies, and Reagents. NCI-H2030 (CRL-5914) and SW1573 (CRL-2170) cells were purchased from ATCC. Both cell lines are homozygous for the G12C mutation in KRas. NCI-H2030 cells were cultured in RPMI-1640 medium containing 1% penicillin-streptomycin and 10% fetal bovine serum (FBS). SW1573 cells were cultured in DMEM containing 1% penicillin-streptomycin and 10% FBS. The KRas detection antibody (Cat. No. LS-C175665) was purchased from LifeSpan Biosciences and was used at a dilution of 1:2000. GAPDH was detected using an antibody purchased from Cell Signaling Technology (Cat. No. 5174) and was diluted 1:3000. Secondary anti-mouse and anti-rabbit detection antibodies were purchased from Cell Signaling Technology (Cat. Nos. 7076 and 7074, respectively).
Compound Treatment and Western Blotting of the Data of Table 14. Either NCI-H2030 or SW1573 cells were plated in 12-well plates and allowed to adhere overnight at 37° C. in an incubator containing 5% CO2. The following day, the medium was replaced with the appropriate medium lacking FBS to induce starvation. Cells were returned to the incubator for an additional 24 hours following media exchange. […] Cells were treated with VHL-based compounds for 24 hours and all other compounds for 72 hours. Following treatment, cells were lysed in RIPA buffer (Thermo Fisher Cat. No. 89900) containing phosphatase (Thermo Fisher Cat. No. 1861277) and protease (Thermo Fisher Cat. No. 78429) inhibitor cocktails. Lysates were cleared at 13,000 rpm for 15 minutes and supernatants were assayed for total protein concentration using the Pierce BCA assay system (Thermo Fisher Cat. No. 23225). For each sample, 10 μg total protein was resolved on a 12% Bis-Tris gel and then transferred to a nitrocellulose membrane. After blocking in 3% BSA in TBST (Tris-buffered Saline with 0.1% Tween-20) for 1 hour at room temperature, membranes were probed with the primary antibody (LS Bio Cat. No. LS-C175665) overnight at 4° C. After incubation with the secondary antibody, the following day membranes were visualized using the SuperSignal™ West Femto substrate (Thermo Fisher Cat. No. 34095). The KRas signal in each lane was normalized to GAPDH and percent degradation was either estimated as less than 25% by visual inspection (C in Table 13) or quantitated relative to the DMSO control lane using BIO-RAD Image Lab 5.2.1, and all data was plotted using GraphPad PRISM 6.07.
DC50 is the half-maximal degradation concentration—i.e., the concentration at which 50% degradation is observed. DMax is the maximum degradation efficacy is achieved—i.e., the maximal degradation observed) degradation data.

C=CC(=O)N1CCN(c2nc(O[C@H](C)CN3CCC(OCCOCCOCC(=O)N[C@H](C(=O)N4C[C@@H](O)C[C@H]4C(=O)N[C@@H](C)c4ccc(-c5scnc5C)cc4)C(C)(C)C)CC3)nc3c(F)c(-c4cc(O)cc5ccccc45)c(Cl)cc23)CC1 [compound 405, (2S,4S)-1-((2S)-2-(2-(2-(2-((1-((2R)-2-((4-(4-acryloylpiperazin-1-yl)-6-chloro-8-fluoro-7-(3-hydroxynaphthalen-1-yl)quinazolin-2-yl)oxy)propyl)piperidin-4-yl)oxy)ethoxy)ethoxy)acetamido)-3,3-dimethylbutanoyl)-4-hydroxy-N-((S)-1-(4-(4-methylthiazol-5-yl)phenyl)ethyl)pyrrolidine-2-carboxamide]
Percent Degradation at Indicated Concentration (μM) (0.1 μM): C (Percent Degradation: C ≤ 35) | Percent Degradation at Indicated Concentration (μM) (0.3 μM): C (Percent Degradation: C ≤ 35) | Percent Degradation at Indicated Concentration (μM) (1 μM): C (Percent Degradation: C ≤ 35)

C=CC(=O)N1CCN(c2nc(O[C@H](C)CN3CCC(OCCOCCOCCOCCOCCOc4ccc5c(c4)CN(C4CCC(=O)NC4=O)C5=O)CC3)nc3c2CCN(c2cc(O)cc4ccccc24)C3)CC1 (stereo partly drawn) [compound 425, 3-(5-((14-((1-((R)-2-((4-(4-acryloylpiperazin-1-yl)-7-(3-hydroxynaphthalen-1-yl)-5,6,7,8-tetrahydropyrido[3,4-d]pyrimidin-2-yl)oxy)propyl)piperidin-4-yl)oxy)-3,6,9,12-tetraoxatetradecyl)oxy)-1-oxoisoindolin-2-yl)piperidine-2,6-dione]
Percent Degradation at Indicated Concentration (μM) (0.1 μM): C (Percent Degradation: C ≤ 35) | Percent Degradation at Indicated Concentration (μM) (0.3 μM): C (Percent Degradation: C ≤ 35) | Percent Degradation at Indicated Concentration (μM) (1 μM): C (Percent Degradation: C ≤ 35)

Cc1ncsc1-c1ccc([C@H](C)NC(=O)[C@@H]2C[C@@H](O)CN2C(=O)[C@@H](NC(=O)COCCOCCOCCOC2CCN(C[C@@H](C)Oc3nc(N4CCN(C(=O)C(O)O)CC4)c4cc(Cl)c(-c5cc(O)cc6ccccc56)c(F)c4n3)CC2)C(C)(C)C)cc1 [compound 246, (2S,4R)-1-((2S)-2-(tert-butyl)-14-((1-((2R)-2-((6-chloro-4-(4-(2,2-dihydroxyacetyl)piperazin-1-yl)-8-fluoro-7-(3-hydroxynaphthalen-1-yl)quinazolin-2-yl)oxy)propyl)piperidin-4-yl)oxy)-4-oxo-6,9,12-trioxa-3-azatetradecanoyl)-4-hydroxy-N-((S)-1-(4-(4-methylthiazol-5-yl)phenyl)ethyl)pyrrolidine-2-carboxamide]
Percent Degradation at Indicated Concentration (μM) (0.3 μM): C (Percent Degradation: C ≤ 35) | Percent Degradation at Indicated Concentration (μM) (1 μM): C (Percent Degradation: C ≤ 35) | Percent Degradation at Indicated Concentration (μM) (3 μM): C (Percent Degradation: C ≤ 35)

C=CC(=O)N1CCN(c2nc(O[C@H](C)CN3CCC(CN4CCN(CC(=O)N[C@H](C(=O)N5C[C@H](O)C[C@H]5C(=O)N[C@@H](C)c5ccc(-c6scnc6C)cc5)C(C)(C)C)CC4)CC3)nc3c(F)c(-c4cc(O)cc5ccccc45)c(Cl)cc23)CC1 [compound 403, (2S,4R)-1-((2S)-2-(2-(4-((1-((2R)-2-((4-(4-acryloylpiperazin-1-yl)-6-chloro-8-fluoro-7-(3-hydroxynaphthalen-1-yl)quinazolin-2-yl)oxy)propyl)piperidin-4-yl)methyl)piperazin-1-yl)acetamido)-3,3-dimethylbutanoyl)-4-hydroxy-N-((S)-1-(4-(4-methylthiazol-5-yl)phenyl)ethyl)pyrrolidine-2-carboxamide]
DC50: < 100 nM | Dmax: 35 to 70% | Percent Degradation at Indicated Concentration (μM) (0.01 μM): C (Percent Degradation: C ≤ 35) | Percent Degradation at Indicated Concentration (μM) (0.03 μM): B (35 < B < 70) | Percent Degradation at Indicated Concentration (μM) (0.1 μM): B (35 < B < 70) | Percent Degradation at Indicated Concentration (μM) (0.3 μM): B (35 < B < 70) | Percent Degradation at Indicated Concentration (μM) (1 μM): C (Percent Degradation: C ≤ 35)

C=CC(=O)N1CCN(c2nc(O[C@H](C)CN3CCC(OCCOCCOCCOCCOCCNc4cccc5c4C(=O)N(C4CCC(=O)NC4=O)C5=O)CC3)nc3c2CCN(c2cc(O)cc4ccccc24)C3)CC1 (some centres unmarked) [compound 415]
Percent Degradation at Indicated Concentration (μM) (0.1 μM): C (Percent Degradation: C ≤ 35) | Percent Degradation at Indicated Concentration (μM) (0.3 μM): C (Percent Degradation: C ≤ 35) | Percent Degradation at Indicated Concentration (μM) (1 μM): C (Percent Degradation: C ≤ 35)

C=CC(=O)N1CCN(c2nc(OC[C@@H]3C[C@@H](OCCOCCOCCOCCOc4ccc5c(c4)C(=O)N(C4CCC(=O)NC4=O)C5=O)CN3C)nc3c2CCN(c2cccc4ccccc24)C3)C[C@@H]1CC#N (stereo partly drawn) [compound 481, 2-((2S)-1-acryloyl-4-(2-(((2S,4R)-4-(2-(2-(2-(2-((2-(2,6-dioxopiperidin-3-yl)-1,3-dioxoisoindolin-5-yl)oxy)ethoxy)ethoxy)ethoxy)ethoxy)-1-methylpyrrolidin-2-yl)methoxy)-7-(naphthalen-1-yl)-5,6,7,8-tetrahydropyrido[3,4-d]dipyrimidin-4-yl)piperazin-2-yl)acetonitrile]
Dmax: 35 to 70% | Percent Degradation at Indicated Concentration (μM) (0.1 μM): C (Percent Degradation: C ≤ 35) | Percent Degradation at Indicated Concentration (μM) (0.3 μM): C (Percent Degradation: C ≤ 35) | Percent Degradation at Indicated Concentration (μM) (1 μM): B (35 < B < 70)

C=CC(=O)N1CCN(c2nc(O[C@H](C)CN3CCC(OCCOCCOCCOc4cc([C@H](C(=O)N5C[C@H](O)C[C@H]5C(=O)N[C@@H](C)c5ccc(-c6scnc6C)cc5)C(C)C)on4)CC3)nc3c(F)c(-c4cc(O)cc5ccccc45)c(Cl)cc23)CC1 [compound 529, (2S,4R)-1-((2R)-2-(3-(2-(2-(2-((1-((2R)-2-((4-(4-acryloylpiperazin-1-yl)-6-chloro-8-fluoro-7-(3-hydroxynaphthalen-1-yl)quinazolin-2-yl)oxy)propyl)piperidin-4-yl)oxy)ethoxy)ethoxy)ethoxy)isoxazol-5-yl)-3-methylbutanoyl)-4-hydroxy-N-((S)-1-(4-(4-methylthiazol-5-yl)phenyl)ethyl)pyrrolidine-2-carboxamide]
Percent Degradation at Indicated Concentration (μM) (0.03 μM): C (Percent Degradation: C ≤ 35) | Percent Degradation at Indicated Concentration (μM) (0.1 μM): C (Percent Degradation: C ≤ 35) | Percent Degradation at Indicated Concentration (μM) (0.3 μM): C (Percent Degradation: C ≤ 35)

CN1C[C@H](OCCOCCOc2ccc3c(c2)C(=O)N(C2CCC(=O)NC2=O)C3=O)C[C@H]1COc1nc2c(c(N3CCN(C(N)=O)[C@@H](CC#N)C3)n1)CCN(c1cccc3ccccc13)C2 (stereo partly drawn) [compound 539, (2S)-2-(cyanomethyl)-4-(2-(((2S,4R)-4-(2-(2-((2-(2,6-dioxopiperidin-3-yl)-1,3-dioxoisoindolin-5-yl)oxy)ethoxy)ethoxy)-1-methylpyrrolidin-2-yl)methoxy)-7-(naphthalen-1-yl)-5,6,7,8-tetrahydropyrido[3,4-d]pyrimidin-4-yl)piperazine-1-carboxamide]
Percent Degradation at Indicated Concentration (μM) (0.03 μM): C (Percent Degradation: C ≤ 35) | Percent Degradation at Indicated Concentration (μM) (0.1 μM): C (Percent Degradation: C ≤ 35) | Percent Degradation at Indicated Concentration (μM) (0.3 μM): C (Percent Degradation: C ≤ 35) | Percent Degradation at Indicated Concentration (μM) (1 μM): C (Percent Degradation: C ≤ 35) | Percent Degradation at Indicated Concentration (μM) (3 μM): C (Percent Degradation: C ≤ 35)

C=CC(=O)N1CCN(c2nc(OC[C@@H]3C[C@@H](OCCOCCOCCOCCOCCNc4cccc5c4C(=O)N(C4CCC(=O)NC4=O)C5=O)CN3C)nc3c2CCN(c2cccc4ccccc24)C3)C[C@@H]1CC#N (stereo partly drawn) [compound 519, 2-((2S)-1-acryloyl-4-(2-(((2S,4R)-4-((14-((2-(2,6-dioxopiperidin-3-yl)-1,3-dioxoisoindolin-4-yl)amino)-3,6,9,12-tetraoxatetradecyl)oxy)-1-methylpyrrolidin-2-yl)methoxy)-7-(naphthalen-1-yl)-5,6,7,8-tetrahydropyrido[3,4-d]pyrimidin-4-yl)piperazin-2-yl)acetonitrile]
Dmax: ≥ 70% | Percent Degradation at Indicated Concentration (μM) (0.1 μM): B (35 < B < 70) | Percent Degradation at Indicated Concentration (μM) (0.3 μM): A (A > 70) | Percent Degradation at Indicated Concentration (μM) (1 μM): C (Percent Degradation: C ≤ 35)
